Laboratory results published in PMC4506092, “Utilizing Chemical Genomics to Identify Cytochrome b as a Novel Drug Target for Chagas Disease” (PLoS Pathogens, 2015).

What was measured:
[1] = Mammalian cell cytotoxicity assay (CellTiter-Glo); format: cell-based, mouse; settings: mouse; NIH/3T3, 96 hours; read-out: CC50, 3T3 cell line
Description: NIH/3T3 fibroblast cells were maintained in RPMI-1640 medium supplemented with 10% heat-inactivated FBS and 100 IU penicillin / 100 μg streptomycin per mL at 37°C / 5% CO2. For compound screening, cells were diluted to 4 × 10^4 cells / mL in assay medium (RPMI-1640, 5% FBS, and 100 IU penicillin / 100 μg streptomycin per mL) and seeded at 50 μL / well into 384-well plates. Following overnight incubation, compounds were added to each well (0.2% DMSO final concentration) and plates were further incubated for 96 hours. Cell viability was assessed using the CellTiter-Glo Luminescent Cell Viability Assay (Promega). Measured luminescence values were normalized to the value obtained for 0.2% DMSO, and plotted against the corresponding compound concentration for half maximal cytotoxic concentration (CC50) value determination.

[2] = target: T. cruzi cytochrome bc1 (complex III), wild-type (Trypanosoma cruzi, UniProt Q9TED7); test: T. cruzi complex III activity (decylubiquinol / cytochrome c reaction), wild-type; format: biochemical; settings: digitonin-permeabilized epimastigotes
Chain of T. cruzi cytochrome bc1 (complex III), wild-type (Q4DU59 entry or part of it): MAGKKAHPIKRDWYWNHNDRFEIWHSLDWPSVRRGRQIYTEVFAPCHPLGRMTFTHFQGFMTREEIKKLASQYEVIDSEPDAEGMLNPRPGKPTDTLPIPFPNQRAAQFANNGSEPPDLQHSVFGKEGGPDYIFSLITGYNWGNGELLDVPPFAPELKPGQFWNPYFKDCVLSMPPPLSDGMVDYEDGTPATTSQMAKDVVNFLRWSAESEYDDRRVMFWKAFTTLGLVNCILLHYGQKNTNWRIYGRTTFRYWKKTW
Chain of T. cruzi cytochrome bc1 (complex III), wild-type (Q9TED7 entry or part of it): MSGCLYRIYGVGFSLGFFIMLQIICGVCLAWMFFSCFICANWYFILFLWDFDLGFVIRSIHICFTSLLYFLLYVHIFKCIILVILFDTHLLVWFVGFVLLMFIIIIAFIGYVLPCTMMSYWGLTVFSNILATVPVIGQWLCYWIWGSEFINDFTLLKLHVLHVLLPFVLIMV
Description: T. cruzi epimastigotes ([…], density of 5 × 10^7 parasites / mL) were harvested by centrifugation (800 × g for 5 minutes at 4°C) and resuspended at 10 mg / mL of protein in buffer A containing 0.1 mg digitonin / mg protein. The parasites were then incubated with the detergent for 10 minutes at 26°C. The pellet fraction was collected by centrifugation (13,000 × g for 5 min at 4°C) and immediately used in the complex III assay.
Complex III activity was monitored using a coupled decylubiquinol / cytochrome c reaction. Decylubiquinone was first reduced to decylubiquinol as described. […] The reduction of cytochrome c was monitored at 550 nm using the SpectraMax Plus384 absorbance microplate reader. Blank samples containing all components excluding decylubiquinol were processed in parallel and absorbance values were subtracted from sample absorbance values to specifically measure […] reduction of cytochrome c. All sample and blank wells were prepared in triplicate. For IC50 determination, the slope of the linear portion of the corrected respiration trace was determined, and normalized to the slope obtained for 0.2% DMSO condition.

in vivo = settings: mouse

For `CCc1c(C)c(C#N)c2nc3ccccc3n2c1O` [GNF7686], the CC50 [1] was > 20 µM, the IC50 [2] was 400 nM and the clearance (in vivo) was 53 mL/min/kg. It also gave a bioavailability (in vivo; po) of 6%.
